Data reported in US10065962B2, “Amino pryan ring derivative and composition and use thereof” (Sichuan Haisco Pharmaceutical Co., Ltd., priority 2014, dated 2018).
Read-outs that look alike come from different tables or passages of the source.

Key:
[1] = Evaluation of pharmacokinetics in rats; assay type: in vivo; settings: rat, whole blood, po, male SD rats, 5 mg/kg intragastric; for Cmax: read-out: Blood drug level Cmax; for half-life: read-out: Half-life T1/2 (converted)
Experimental: Male SD rats (purchased from Vital River Laboratory Animal Technology Co. LTD. License No. 11400700005540) each weighing 200 to 240 g were fasted overnight. On the day of experiments, 3 SD rats were each intragastrically administered with 5 mg/kg compound, and a 0.20 ml blood sample was taken from their jugular veins before the administration and 15 min, 30 min, 45 min, 1 h, 2 h, 4 h, 8 h, 12 h, and 24 h after the administration, to an EDTA tube. Acetonitrile containing an internal reference (verapamil 5.00 ng/ml, and glibenclamide 50.0 ng/ml) was added to the blood sample, followed by vigorous vortexing and centrifuging at 13,000 rpm for 10 min. The supernatant was taken for the LC-MS/MS assay. Pharmacokinetics parameters were calculated by using the non-compartment mode in Pharsight Phoenix 6.3.

plasma DPP-IV [2] = biological target: plasma DPP-IV (Canis lupus familiaris, UniProt A0A8I3Q2I8); settings: beagle dogs, oral 10.0 mg/kg, plasma DPP-IV activity
Experimental: The laboratory animals were male beagle dogs provided by Chengdu Dashuo Biological Sciences and Technology Co., Ltd. Fasted beagle dogs were grouped based on the body weight. The test group was orally administrated with the test compounds at a dose of 10.0 mg/kg. Blood samples were taken at various time points after the administration and subjected to anticoagulation with EDTA-2Na. […] Plasma was taken and preserved at −20° C. For the enzymatic activity assay, 40 μl plasma was taken from each test sample, and 10 μl H-Ala-Pro-AFC substrate (0.2 mM) was added thereto, followed by reaction for 15 nm.

DPP-IV = DPP-IV (Mus musculus, UniProt P28843); experiment: Effect of single oral administration on the enzymatic activity of DPP-IV in ob/ob mice; settings: read-out: DPP-IV enzymatic activity
plasma DPP-IV [3] = biological target: T1, plasma DPP-IV (Rattus norvegicus, UniProt P14740); experiment: Enzymatic screening experiment on plasma DPP-IV in rats; assay type: in vivo; settings: SD rats, oral 3.0 mg/kg, plasma DPP-IV activity
T1 construct: from tissue; host or cells: plasma of SD rats
Description: Fasted rats were grouped based on the body weight.

C57 mice = experiment: Oral glucose tolerance test (OGTT) in mice; assay type: in vivo; settings: 10 mg/kg intragastric, glucose 5 g/kg 60 min after administration
Experimental: The oral glucose tolerance test (OGTT) was performed to evaluate the hypoglycemic effect of the compounds of the present invention in mice. 8-week old male C57 mice were purchased from Beijing Vital River Laboratory Animal Technology Co., Ltd. (Laboratory Animal Certificate No. SCXK (Beijing) 2012-0001) and used in the test The mice were grouped based on the base level of blood sugar after fasted, with 10 animals per group. The test compounds were formulated into a 1 mg/ml suspension and administered intragastrically at a dose of 10 mg/kg, while a blank agent was administered to the blank control group. 60 min after the administration, a 50% aqueous solution of glucose was dosed (5 g/kg), and the blood sugar level of each mouse was measured with a OneTouch blood glucose meter manufactured by Johnson & Johnson at 0 min, 15 min, 30 min, 45 min, 60 min, and 120 min.

[4] = Concentration of the compound in monkey plasma by LC-MS/MS; assay type: in vivo; settings: male, rhesus monkey, Rhesus monkeys, oral 10.0 mg/kg
Experimental: The laboratory animals were healthy male Rhesus monkeys each weighing about 5 kg, provided by Sichuan Primed Bio-tech Group Co. Ltd. Fasted Rhesus monkeys were grouped based on the body weight. […] For the enzymatic activity assay, 40 μl plasma was taken from each test sample, and 10 μl H-Ala-Pro-AFC substrate (0.2 mM) was added thereto, followed by reaction for 15 min. […] The period during which the inhibition of plasma. DPP-IV enzymatic activity was ≥80% was calculated for the test compounds, and the concentration of the compounds in plasma was measured by LC-MS/MS.

DPP-IV, sequence (P28843 37-760 limits assumed): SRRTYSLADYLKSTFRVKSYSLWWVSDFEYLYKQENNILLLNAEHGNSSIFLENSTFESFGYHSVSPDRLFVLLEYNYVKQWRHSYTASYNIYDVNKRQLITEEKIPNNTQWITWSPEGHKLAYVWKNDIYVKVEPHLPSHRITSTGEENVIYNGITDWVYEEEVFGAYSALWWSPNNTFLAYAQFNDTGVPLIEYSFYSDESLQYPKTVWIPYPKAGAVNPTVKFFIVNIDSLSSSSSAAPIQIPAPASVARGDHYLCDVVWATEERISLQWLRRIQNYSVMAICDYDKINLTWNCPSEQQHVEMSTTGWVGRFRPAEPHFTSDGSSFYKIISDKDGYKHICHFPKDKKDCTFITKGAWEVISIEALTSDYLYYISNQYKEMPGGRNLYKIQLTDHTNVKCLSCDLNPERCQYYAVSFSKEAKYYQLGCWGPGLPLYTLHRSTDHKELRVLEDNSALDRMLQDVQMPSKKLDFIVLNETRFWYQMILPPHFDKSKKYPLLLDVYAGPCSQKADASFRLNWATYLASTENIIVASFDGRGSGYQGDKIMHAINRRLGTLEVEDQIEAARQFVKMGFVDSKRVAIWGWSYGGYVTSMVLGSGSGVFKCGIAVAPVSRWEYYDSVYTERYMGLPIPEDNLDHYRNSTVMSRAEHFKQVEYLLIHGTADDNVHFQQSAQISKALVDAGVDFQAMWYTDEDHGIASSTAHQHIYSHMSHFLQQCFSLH
plasma DPP-IV (Canis lupus familiaris, UniProt A0A8I3Q2I8), sequence (A0A8I3Q2I8 1-765): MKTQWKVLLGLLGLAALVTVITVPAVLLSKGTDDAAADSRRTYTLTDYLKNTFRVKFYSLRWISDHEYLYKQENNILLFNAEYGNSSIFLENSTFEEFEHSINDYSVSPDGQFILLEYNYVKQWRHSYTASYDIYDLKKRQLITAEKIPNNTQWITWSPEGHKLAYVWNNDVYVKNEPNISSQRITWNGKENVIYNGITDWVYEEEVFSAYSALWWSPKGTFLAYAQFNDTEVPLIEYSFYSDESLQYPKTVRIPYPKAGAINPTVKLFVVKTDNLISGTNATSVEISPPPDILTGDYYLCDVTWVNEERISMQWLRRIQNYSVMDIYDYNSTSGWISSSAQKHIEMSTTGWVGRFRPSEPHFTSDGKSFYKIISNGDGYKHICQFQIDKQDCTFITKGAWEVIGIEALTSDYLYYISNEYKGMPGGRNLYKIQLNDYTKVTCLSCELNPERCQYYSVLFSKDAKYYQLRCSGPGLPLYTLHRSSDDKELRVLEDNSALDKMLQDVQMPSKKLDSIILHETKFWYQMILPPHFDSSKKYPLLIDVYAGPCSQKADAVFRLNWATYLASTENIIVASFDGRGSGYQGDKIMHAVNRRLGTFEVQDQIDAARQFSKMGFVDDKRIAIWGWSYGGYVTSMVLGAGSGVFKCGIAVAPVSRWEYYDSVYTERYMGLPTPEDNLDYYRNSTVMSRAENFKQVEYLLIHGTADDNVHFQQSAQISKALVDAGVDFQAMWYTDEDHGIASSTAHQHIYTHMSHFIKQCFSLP
T1 sequence (P14740 37-767 limits assumed): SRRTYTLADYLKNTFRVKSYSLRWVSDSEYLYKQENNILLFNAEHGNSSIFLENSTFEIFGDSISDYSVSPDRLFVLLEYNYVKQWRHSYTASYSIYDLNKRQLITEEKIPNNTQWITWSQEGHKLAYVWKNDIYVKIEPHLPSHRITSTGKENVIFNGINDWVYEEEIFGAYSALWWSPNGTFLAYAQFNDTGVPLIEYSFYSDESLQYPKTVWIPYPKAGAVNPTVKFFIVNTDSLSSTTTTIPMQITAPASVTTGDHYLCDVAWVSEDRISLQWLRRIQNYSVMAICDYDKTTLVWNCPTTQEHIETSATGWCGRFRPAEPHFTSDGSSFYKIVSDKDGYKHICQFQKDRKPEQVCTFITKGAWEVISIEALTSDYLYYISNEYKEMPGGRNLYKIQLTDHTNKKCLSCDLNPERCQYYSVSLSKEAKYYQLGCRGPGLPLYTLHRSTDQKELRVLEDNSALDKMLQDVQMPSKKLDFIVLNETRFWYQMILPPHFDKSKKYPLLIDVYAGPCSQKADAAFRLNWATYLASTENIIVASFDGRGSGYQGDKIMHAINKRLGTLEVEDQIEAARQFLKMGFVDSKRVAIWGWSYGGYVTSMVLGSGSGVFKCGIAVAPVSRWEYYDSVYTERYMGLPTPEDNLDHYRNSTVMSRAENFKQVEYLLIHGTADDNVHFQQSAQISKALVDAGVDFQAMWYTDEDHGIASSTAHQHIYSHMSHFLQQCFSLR

CS(=O)(=O)n1cc2c(n1)CN([C@H]1CO[C@H](c3cc(F)ccc3F)[C@@H](N)C1)C2 [Omarigliptin]
AUC(0-t) [1]: 66.8 µg·h/mL
Cmax [1]: 9.29 µg/mL
half-life [1]: 6.1 h
Duration of Inhibition ≥80% (plasma DPP-IV [2]): 162 h
response vs control in vivo at 30 mg/kg (DPP-IV; 2 h): 5.8%
response vs control in vivo at 30 mg/kg (DPP-IV; 4 h): 5.4%
response vs control in vivo at 30 mg/kg (DPP-IV; 10 h): 5.5%
response vs control in vivo at 30 mg/kg (DPP-IV; 24 h): 30%
response vs control in vivo at 30 mg/kg (DPP-IV; 34 h): 34.5%
response vs control in vivo at 30 mg/kg (DPP-IV; 48 h): 58.1%
response vs control in vivo at 30 mg/kg (DPP-IV; 58 h): 49.9%
response vs control in vivo at 30 mg/kg (DPP-IV; 72 h): 66.7%
Duration of Inhibition ≥70% (plasma DPP-IV [3]): 55 h
Decrease in AUC (blood sugar, OGTT) (C57 mice): 22.27%

CS(=O)(=O)n1cc2c(n1)CN([C@@H]1C[C@H](N)[C@@H](c3cc(F)ccc3F)O[C@@H]1C(F)(F)F)C2 [Compound 3, (2R,3S,5R,6S)-2-(2,5-difluorophenyl)-5-(2-(methylsulfonyl)pyrrolo[3,4-c]pyrazol-5(2H,4H,6H)-yl)-6-(trifluoromethyl)tetrahydro-2H-pyran-3-amine]
AUC(0-t) [1]: 106 µg·h/mL
Cmax [1]: 11.6 µg/mL
half-life [1]: 7.1 h
Decrease in AUC (blood sugar, OGTT) (C57 mice): 27.99%
concentration at 0 h ([4]; 0 h): 0 µM
concentration at 0.5 h ([4]; 0.5 h): 0.27 µM
concentration at 1 h ([4]; 1 h): 1.06 µM
concentration at 2 h ([4]; 2 h): 5.64 µM
concentration at 4 h ([4]; 4 h): 2.56 µM
concentration at 8 h ([4]; 8 h): 4.22 µM
concentration at 12 h ([4]; 12 h): 4.01 µM
concentration at 24 h ([4]; 24 h): 2.93 µM
concentration at 32 h ([4]; 32 h): 2.56 µM
concentration at 48 h ([4]; 48 h): 1.94 µM
concentration at 56 h ([4]; 56 h): 1.28 µM
concentration at 72 h ([4]; 72 h): 1.12 µM
concentration at 80 h ([4]; 80 h): 0.68 µM
concentration at 96 h ([4]; 96 h): 0.71 µM
concentration at 104 h ([4]; 104 h): 0.44 µM
concentration at 120 h ([4]; 120 h): 0.34 µM
concentration at 128 h ([4]; 128 h): 0.27 µM
concentration at 144 h ([4]; 144 h): 0.21 µM
concentration at 152 h ([4]; 152 h): 0.16 µM
concentration at 168 h ([4]; 168 h): 0.14 µM
concentration at 216 h ([4]; 216 h): 0.071 µM
concentration at 240 h ([4]; 240 h): 0.041 µM
concentration at 264 h ([4]; 264 h): 0.032 µM

N[C@H]1C[C@@H](N2Cc3cn(S(=O)(=O)C4CC4)nc3C2)[C@@H](C(F)(F)F)O[C@@H]1c1cc(F)ccc1F [Compound 1]
Decrease in AUC (blood sugar, OGTT) (C57 mice): 27.20%
